For this experiment, the target named is T1, p110α Type Ia human PI3K (Homo sapiens, UniProt P42336).
T1 construct: full length DNA of each of the p110α, p110β and p110δ Type Ia human PI3K p110 isoforms; 6-His; made in house; host or cells: baculovirus expression system (Sf9 is named only for PI3Kγ)
Description: Test (a) In Vitro PI3K Enzyme Assay (AlphaScreen). Conditions: read-out: IC50 versus p110α PI3K. Format: biochemical. The text has this: The assay used AlphaScreen technology (Gray et al., Analytical Biochemistry, 2003, 313: 234-245) to determine the ability of test compounds to inhibit phosphorylation by recombinant Type I PI3K enzymes of the lipid PI(4,5)P2.
DNA fragments encoding human PI3K catalytic and regulatory subunits were isolated from cDNA libraries using standard molecular biology and PCR cloning techniques. The selected DNA fragments were used to generate baculovirus expression vectors. In particular, full length DNA of each of the p110α, p110β and p110δ Type Ia human PI3K p110 isoforms (EMBL Accession Nos. HSU79143, S67334, Y10055 for p110α, p110β and p110δ respectively) were sub-cloned into a pDEST10 vector (Invitrogen Limited, Fountain Drive, Paisley, UK). The vector is a Gateway-adapted version of Fastbac1 containing a 6-His epitope tag. A truncated form of Type Ib human PI3K p110γ isoform corresponding to amino acid residues 144-1102 (EMBL Accession No. X8336A) and the full length human p85α regulatory subunit (EMBL Accession No. HSP13KIN) were also sub-cloned into pFastBac1 vector containing a 6-His epitope tag. The Type Ia p110 constructs were co-expressed with the p85α regulatory subunit. Following expression in the baculovirus system using standard baculovirus expression techniques, expressed proteins were purified using the His epitope tag using standard purification techniques.
DNA corresponding to amino acids 263 to 380 of human general receptor for phosphoinositides (Grp1) PH domain was isolated from a cDNA library using standard molecular biology and PCR cloning techniques. The resultant DNA fragment was sub-cloned into a pGEX 4T1 E. coli expression vector containing a GST epitope tag (Amersham Pharmacia Biotech, Rainham, Essex, UK) as described by Gray et al., Analytical Biochemistry, 2003, 313: 234-245). The GST-tagged Grp1 PH domain was expressed and purified using standard techniques.
Test compounds were prepared as […] stock solutions in DMSO and diluted into water as required to give a range of final assay concentrations. Aliquots (2 μl) of each compound dilution were placed into a well of a Greiner 384-well low volume (LV) white polystyrene plate (Greiner Bio-one, Brunel Way, Stonehouse, Gloucestershire, UK Catalogue No. 784075). […]
Biotinylated-DiC8-PI(3,4,5)P3 (50 nM; Cell Signals Inc., Catalogue No. 107), recombinant purified GST-Grp1 PH protein (2.5 nM) and AlphaScreen Anti-GST donor and acceptor beads (100 ng; Packard Bioscience Limited, Station Road, Pangbourne, Berkshire, UK, Catalogue No. 6760603M) were added and the assay plates were left for about 5 to 20 hours at room temperature in the dark. The resultant signals arising from laser light excitation at 680 nm were read using a Packard AlphaQuest instrument. […]

Three compounds from patent US7868188B2, “5-heteroaryl thiazoles and their use as PI3K inhibitors” (AstraZeneca AB, priority 2004, dated 2011) can be followed below.

pIC50: −log10 of the molar value. Where a name gives a salt, the structure may show the parent alone.

T1 sequence (P42336 whole entry, canonical isoform): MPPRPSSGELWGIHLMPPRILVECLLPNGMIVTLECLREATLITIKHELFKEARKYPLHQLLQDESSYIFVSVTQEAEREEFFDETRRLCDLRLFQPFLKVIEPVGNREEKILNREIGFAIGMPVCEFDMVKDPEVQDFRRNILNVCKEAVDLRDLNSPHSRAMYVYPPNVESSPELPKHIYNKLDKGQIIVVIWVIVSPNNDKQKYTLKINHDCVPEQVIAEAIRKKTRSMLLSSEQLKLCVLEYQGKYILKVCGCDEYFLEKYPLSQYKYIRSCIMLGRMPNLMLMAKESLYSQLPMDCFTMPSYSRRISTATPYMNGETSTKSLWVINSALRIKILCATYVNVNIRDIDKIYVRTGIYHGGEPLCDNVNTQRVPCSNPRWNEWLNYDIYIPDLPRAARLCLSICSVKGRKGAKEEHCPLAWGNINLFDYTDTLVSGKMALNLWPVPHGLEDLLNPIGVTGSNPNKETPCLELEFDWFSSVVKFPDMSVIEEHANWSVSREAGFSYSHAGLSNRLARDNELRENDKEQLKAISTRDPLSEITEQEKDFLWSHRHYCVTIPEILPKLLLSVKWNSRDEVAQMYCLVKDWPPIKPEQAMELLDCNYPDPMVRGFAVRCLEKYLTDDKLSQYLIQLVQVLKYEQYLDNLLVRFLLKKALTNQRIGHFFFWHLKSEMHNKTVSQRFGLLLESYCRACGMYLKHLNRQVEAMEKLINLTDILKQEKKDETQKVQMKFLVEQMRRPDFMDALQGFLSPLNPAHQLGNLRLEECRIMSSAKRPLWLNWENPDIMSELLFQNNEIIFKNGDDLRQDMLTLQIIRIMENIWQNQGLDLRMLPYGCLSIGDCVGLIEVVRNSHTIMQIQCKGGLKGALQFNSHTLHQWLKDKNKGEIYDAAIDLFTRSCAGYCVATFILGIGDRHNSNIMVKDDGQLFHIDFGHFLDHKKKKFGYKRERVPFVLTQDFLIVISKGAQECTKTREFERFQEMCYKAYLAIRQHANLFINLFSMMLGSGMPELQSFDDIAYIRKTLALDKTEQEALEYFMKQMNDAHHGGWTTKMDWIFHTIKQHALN
T1 sequence (P27986 whole entry partner, canonical isoform): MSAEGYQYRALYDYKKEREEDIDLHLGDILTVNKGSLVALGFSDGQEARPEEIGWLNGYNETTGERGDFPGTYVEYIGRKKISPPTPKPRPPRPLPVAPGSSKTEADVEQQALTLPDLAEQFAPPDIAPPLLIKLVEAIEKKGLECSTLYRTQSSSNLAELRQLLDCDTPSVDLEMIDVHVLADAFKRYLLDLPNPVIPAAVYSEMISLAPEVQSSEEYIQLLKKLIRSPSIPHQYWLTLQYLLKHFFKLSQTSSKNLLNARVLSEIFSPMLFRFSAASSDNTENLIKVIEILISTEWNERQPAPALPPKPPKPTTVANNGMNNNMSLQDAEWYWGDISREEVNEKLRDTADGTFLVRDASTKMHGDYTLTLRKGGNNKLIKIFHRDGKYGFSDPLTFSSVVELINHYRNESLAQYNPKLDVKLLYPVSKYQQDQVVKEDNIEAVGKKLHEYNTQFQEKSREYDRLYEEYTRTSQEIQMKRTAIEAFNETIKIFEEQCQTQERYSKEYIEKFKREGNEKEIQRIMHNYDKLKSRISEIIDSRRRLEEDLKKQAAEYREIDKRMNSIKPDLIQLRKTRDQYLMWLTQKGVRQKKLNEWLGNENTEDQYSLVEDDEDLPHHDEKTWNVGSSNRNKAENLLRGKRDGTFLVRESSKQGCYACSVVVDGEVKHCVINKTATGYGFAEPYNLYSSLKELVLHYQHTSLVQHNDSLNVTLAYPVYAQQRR

In the case of `CC(=O)Nc1nc(C)c(-c2cnc(Cl)c(NCc3ccc(F)cc3)c2)s1` [Compound No. 3 within Example 79, N-{5-[6-Chloro-5-(4-fluorobenzylamino)pyridin-3-yl]-4-methyl-1,3-thiazol-2-yl}acetamide], the negative-log IC50 (pIC50) is around 6.70. For `CC(=O)Nc1nc(C)c(-c2cnc(Cl)c(S(=O)(=O)Nc3ccccc3)c2)s1` [Compound No. 4 within Example 73, N-{5-[6-Chloro-5-(N-phenylsulfamoyl)pyridin-3-yl]-4-methyl-1,3-thiazol-2-yl]acetamide] the value was around 7.52; for `CC(=O)Nc1nc(C)c(-c2cnc(Cl)c(NS(C)(=O)=O)c2)s1` [Example 28, N-[5-(6-Chloro-5-methylsulfonylaminopyridin-3-yl)-4-methyl-1,3-thiazol-2-yl]acetamide trifluoroacetate], around 8.00.
